# Patent US11702404B2, “GLP-1R modulating compounds” (priority 2019, dated 2023)
# Read-outs that look alike come from different tables or passages of the source.
# Experiments:
# [1] = Microsomal stability, human liver microsomes (predicted hepatic clearance); settings: predicted from in vitro microsomal stability data
# GLP-1R = GLP-1R (Homo sapiens, UniProt P43220); assay: GLP-1R activation: cAMP increase in CHO cells stably expressing GLP-1R; type: cell-based
# [2] = cAMP increase, CHO cells stably expressing GLP-1R, 10 point dose response, 30 minutes incubation, read-out: EC50
# GLP-1R, sequence (P43220 24-463): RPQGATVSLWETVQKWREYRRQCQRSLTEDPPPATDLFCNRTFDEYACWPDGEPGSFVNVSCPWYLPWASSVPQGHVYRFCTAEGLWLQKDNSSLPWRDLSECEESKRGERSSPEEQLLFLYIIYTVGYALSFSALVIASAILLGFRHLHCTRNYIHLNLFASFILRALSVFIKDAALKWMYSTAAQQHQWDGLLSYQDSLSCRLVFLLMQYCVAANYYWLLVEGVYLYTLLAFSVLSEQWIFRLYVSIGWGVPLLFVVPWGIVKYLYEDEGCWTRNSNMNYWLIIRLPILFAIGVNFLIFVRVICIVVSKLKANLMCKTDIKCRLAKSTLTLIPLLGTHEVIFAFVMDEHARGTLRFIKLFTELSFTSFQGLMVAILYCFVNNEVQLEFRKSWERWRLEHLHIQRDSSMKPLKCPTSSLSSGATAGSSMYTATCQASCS
Compound,Predicted Hepatic Clearance (Pred. Cl.) [1],EC50 (GLP-1R; [2]),EC50 (GLP-1R; EC50 (nM)),EC50 (GLP-1R; read-out: EC50)
COCCn1c(Cc2cc(F)c(-c3cccc(OCc4ccc(F)cc4Cl)n3)cc2F)nc2ccc(C(=O)O)cc21 [Example 818],6 mL/min/kg,4.3 nM,,
O=C(O)c1ccc2nc(Cc3cc(F)c(-c4cccc(OCc5ccc(Cl)cc5)n4)cc3F)n(Cc3ncco3)c2c1 [Example 819],3.17 mL/min/kg,0.86 nM,,
COCCn1c(Cc2cc(F)c(-c3cccc(OCc4ccc(C#N)nc4)n3)cc2F)nc2ccc(C(=O)O)cc21 [Example 820],2.67 mL/min/kg,,11.5 nM,
COCCn1c(Cc2cc(F)c(-c3cccc(OCc4ccc(Cl)nc4C)n3)cc2F)nc2ccc(C(=O)O)cc21 [Example 821],2.67 mL/min/kg,14.8 nM,,
COCCn1c(Cc2cc(F)c(-c3cccc(OCc4ccc(C)nc4F)n3)cc2F)nc2ccc(C(=O)O)cc21 [Example 822],1.83 mL/min/kg,3.49 nM,,
COCCn1c(Cc2cc(F)c(-c3cccc(OCc4ccc(Cl)nc4F)n3)cc2F)nc2ccc(C(=O)O)cc21 [Example 823],1.83 mL/min/kg,19.8 nM,,
COC(=O)N1CC(Cn2c(Cc3cc(F)c(-c4cccc(OCc5ccc(C#N)cc5F)n4)cc3F)nc3ccc(C(=O)O)cc32)(OC)C1 [Example 824],7.67 mL/min/kg,197 nM,,
COCCn1c(Cc2cc(F)c(-c3cccc(OCc4ccc(C(N)=O)nc4)n3)cc2F)nc2c(F)cc(C(=O)O)cc21 [Example 825],1.83 mL/min/kg,9.09 nM,,
NC(=O)c1ccc(COc2cccc(-c3cc(F)c(Cc4nc5ccc(C(=O)O)cc5n4C[C@@H]4CCO4)cc3F)n2)cn1 [Example 826],3.67 mL/min/kg,0.28 nM,,
N#Cc1ccc(COc2cccc(-c3cc(F)c(Cc4nc5ccc(C(=O)O)cc5n4CCOCC(F)(F)F)cc3F)n2)c(F)c1 [Example 827],7.17 mL/min/kg,1.97 nM,,
N#Cc1ccc(COc2cccc(-c3cc(F)c(Cc4nc5ccc(C(=O)O)cc5n4CCOCC(F)F)cc3F)n2)c(F)c1 [Example 828],8.5 mL/min/kg,3.5 nM,,
O=C(O)c1ccc2nc(Cc3ccc(-c4cccc(OCc5ccc(C(F)F)cc5F)n4)cc3F)n(C[C@@H]3CCO3)c2c1 [Example 829],1.83 mL/min/kg,0.18 nM,,
N#Cc1ccc(COc2cccc(-c3cc(F)c(Cc4nc5ccc(C(=O)O)cc5n4CCOc4ccccc4)cc3F)n2)c(F)c1 [Example 830],2.5 mL/min/kg,448 nM,,
N#Cc1ccc(COc2cccc(-c3cc(F)c(Cc4nc5c(F)cc(C(=O)O)cc5n4C[C@@H]4CCCO4)cc3F)n2)c(F)c1 [Example 831],2.83 mL/min/kg,0.24 nM,,
Cc1csc(NCCn2c(Cc3cc(F)c(-c4ccnc(OCc5ccc(C#N)cc5F)n4)cc3F)nc3ccc(C(=O)O)cc32)n1 [Example 832],14.3 mL/min/kg,,,2330 nM
CC(C1CCCO1)n1c(Cc2cc(F)c(-c3cccc(OCc4ccc(C#N)cc4F)n3)cc2F)nc2ccc(C(=O)O)cc21 (stereo not shown) [Example 833],9.83 mL/min/kg,6.41 nM,,
N#Cc1ccc(COc2cccc(-c3ccc(Cc4nc5ccc(C(=O)O)cc5n4C[C@@H]4CCCO4)cc3F)n2)c(F)c1 [Example 834],6.33 mL/min/kg,0.69 nM,,
N#Cc1ccc(COc2cccc(-c3cc(F)c(Cc4nc5ccc(C(=O)O)cc5n4CCNc4ccccn4)cc3F)n2)c(F)c1 [Example 835],11.2 mL/min/kg,,,515 nM
COCCn1c(Cc2cc(F)c(-c3cccc(OCc4ccc(C#N)cc4F)n3)cc2F)nc2cc(OC)c(C(=O)O)cc21 [Example 836],1.83 mL/min/kg,9.29 nM,,

Compound,Predicted Hepatic Clearance (Pred. Cl.) [1],EC50 (GLP-1R; [2]),EC50 (GLP-1R; EC50 (nM)),EC50 (GLP-1R; read-out: EC50)
COCCn1c(Cc2cc(F)c(-c3cccc(OCc4ccc(C#N)cc4F)n3)cc2F)nc2cc(Cl)c(C(=O)O)cc21 [Example 837],1.83 mL/min/kg,29.3 nM,,
N#Cc1ccc(COc2cccc(-c3cc(F)c(Cc4nc5ccc(C(=O)O)cc5n4C4CCCOC4)cc3F)n2)c(F)c1 (stereo not shown) [Example 838],4.33 mL/min/kg,3.6 nM,,
CC1(Cn2c(Cc3cc(F)c(-c4cccc(OCc5ccc(C#N)cc5F)n4)cc3F)nc3ccc(C(=O)O)cc32)CCOCC1 [Example 839],5.83 mL/min/kg,7.04 nM,,
N#Cc1ccc(COc2cccc(-c3cc(F)c(Cc4nc5ccc(C(=O)O)cc5n4C[C@@H]4CCCO4)cc3F)n2)c(F)c1 [Example 840],4.83 mL/min/kg,1.11 nM,,
COCCn1c(Cc2ccc(-c3cccc(OCc4ccc(C#CC(C)(C)O)cc4F)n3)cc2F)nc2ccc(C(=O)O)cc21 [Example 841],6.17 mL/min/kg,164 nM,,
"COCCn1c(Cc2ccc(-c3cccc(OCc4ccc(C#Cc5cncnc5)cc4F)n3)cc2F)nc2ccc(C(=O)O)cc21 [Example 842, 2-(2-fluoro-4-(6-((2-fluoro-4-(pyrimidin-5-ylethynyl)benzyl)oxy)pyridin-2-yl)benzyl)-1-(2-methoxyethyl)-1H-benzo[d]imidazole-6-carboxylic acid]",1.83 mL/min/kg,4.73 nM,,
COCCn1c(Cc2ccc(-c3cccc(OCc4ccc(C#CC5CC5)cc4F)n3)cc2F)nc2ccc(C(=O)O)cc21 [Example 843],2.67 mL/min/kg,17.2 nM,,
"COCCn1c(Cc2cc(F)c(-c3cccc(OCc4ccc(C#N)cc4COC)n3)cc2F)nc2ccc(C(=O)O)cc21 [Example 844, 2-(4-(6-((4-cyano-2-(methoxymethyl)benzyl)oxy)pyridin-2-yl)-2,5-difluorobenzyl)-1-(2-methoxyethyl)-1H-benzo[d]imidazole-6-carboxylic acid]",2.5 mL/min/kg,13 nM,,
"COCCn1c(Cc2ccc(-c3cccc(OCc4ccc(COC)cc4F)n3)cc2F)nc2ccc(C(=O)O)cc21 [Example 845, 2-(2-fluoro-4-(6-((2-fluoro-4-(methoxymethyl)benzyl)oxy)pyridin-2-yl)benzyl)-1-(2-methoxyethyl)-1H-benzo[d]imidazole-6-carboxylic acid]",12.3 mL/min/kg,,18 nM,
"CCOC(=O)c1ccc2nc(Cc3cc(F)c(-c4cccc(OCc5ccc(C#N)cc5F)n4)cc3F)n(CCOC)c2c1 [Example 847, Ethyl 2-(4-(6-((4-cyano-2-fluorobenzyl)oxy)pyridin-2-yl)-2,5-difluorobenzyl)-1-(2-methoxyethyl)-1H-benzo[d]imidazole-6-carboxylate]",6 mL/min/kg,537 nM,,
CC(=O)N1C[C@H](O)C[C@@H]1Cn1c(Cc2cc(F)c(-c3cccc(OCc4ccc(C#N)cc4F)n3)cc2F)nc2ccc(C(=O)O)cc21 [Example 848],2.83 mL/min/kg,4.08 nM,,
"CC(=O)N1CC2CC1(Cn1c(Cc3cc(F)c(-c4cccc(OCc5ccc(C#N)cc5F)n4)cc3F)nc3ccc(C(=O)O)cc31)C2 [Example 849, 1-((2-acetyl-2-azabicyclo[2.1.1]hexan-1-yl)methyl)-2-(4-(6-((4-cyano-2-fluorobenzyl)oxy)pyridin-2-yl)-2,5-difluorobenzyl)-1H-benzo[d]imidazole-6-carboxylic acid]",5.33 mL/min/kg,,,14.2 nM
"COc1cc(C#N)ncc1COc1cccc(-c2cc(F)c(Cc3nc4ccc(C(=O)O)cc4n3C[C@@H]3CCO3)cc2F)n1 [Example 850, (S)-2-(4-(6-((6-Cyano-4-methoxypyridin-3-yl)methoxy)pyridin-2-yl)-2,5-difluorobenzyl)-1-(oxetan-2-ylmethyl)-1H-benzo[d]imidazole-6-carboxylic acid]",3.33 mL/min/kg,0.23 nM,,
O=C(O)c1ccc2nc(Cc3cc(F)c(-c4cccc(OCc5cnc(Cl)cc5F)n4)cc3F)n(C[C@@H]3CCO3)c2c1 [Example 851],2.5 mL/min/kg,0.25 nM,,
"N#Cc1ccc(COc2ccc(F)c(-c3cc(F)c(Cc4nc5c(F)cc(C(=O)O)cc5n4C[C@@H]4CCO4)cc3F)n2)cn1 [Example 852, (S)-2-(4-(6-((6-cyanopyridin-3-yl)methoxy)-3-fluoropyridin-2-yl)-2,5-difluorobenzyl)-4-fluoro-1-(oxetan-2-ylmethyl)-1H-benzo[d]imidazole-6-carboxylic acid]",4.5 mL/min/kg,0.24 nM,,
COc1cc(Cl)ncc1COc1cccc(-c2cc(F)c(Cc3nc4ccc(C(=O)O)cc4n3C[C@@H]3CCO3)cc2F)n1 [Example 853],9 mL/min/kg,0.15 nM,,
"NC(=O)c1cc(F)c(COc2cccc(-c3cc(F)c(Cc4nc5ccc(C(=O)O)cc5n4C[C@@H]4CCO4)cc3F)n2)cn1 [Example 854, (S)-2-(4-(6-((6-carbamoyl-4-fluoropyridin-3-yl)methoxy)pyridin-2-yl)-2,5-difluorobenzyl)-1-(oxetan-2-ylmethyl)-1H-benzo[d]imidazole-6-carboxylic acid]",2.33 mL/min/kg,0.55 nM,,
COCCn1c(Cc2cnc(-c3cccc(OCc4ccc(C#N)cc4F)n3)c(F)c2)nc2ccc(C(=O)O)cc21 [Example 855],5.5 mL/min/kg,12.6 nM,,
"NC(=O)c1ccc(COc2cccc(-c3cc(F)c(Cc4nc5ccc(C(=O)O)cc5n4C[C@@H]4CCO4)cc3F)n2)c(OC(F)F)n1 [Example 857, (S)-2-(4-(6-((6-carbamoyl-2-(difluoromethoxy)pyridin-3-yl)methoxy)pyridin-2-yl)-2,5-difluorobenzyl)-1-(oxetan-2-ylmethyl)-1H-benzo[d]imidazole-6-carboxylic acid]",3.17 mL/min/kg,0.35 nM,,
